The subject of data set [1] is Plasmodium falciparum. Description: NOVARTIS: Inhibition of Plasmodium falciparum 3D7 (drug-susceptible) proliferation in erythrocyte-based infection assay. The data set is classed as functional, organism-based. The settings on record: Plasmodium falciparum, 3D7.
A short description of data set [2]: NOVARTIS: Cytotoxicity against human hepatocellular carcinoma cell line (Huh7). The class given is toxicity, cell-based, Huh-7. The settings on record: Huh7 cells (hepatocellular carcinoma cell line).
The subject of data set [3] is Plasmodium falciparum. Description: NOVARTIS: Inhibition of Plasmodium falciparum W2 (drug-resistant) proliferation in erythrocyte-based infection assay. The data set is classed as functional, organism-based. The settings on record: Plasmodium falciparum, W2; read-out: EC50.

We go through 22 molecules from ChEMBL document CHEMBL1156829 (Proc Natl Acad Sci U S A, 2008).

Some results are limits rather than exact numbers.

By EC50 is commonly meant the concentration giving half of the maximal effect. A word on the CC50: it is the concentration giving 50% cytotoxicity. Read a high CC50 as lower toxicity to the cells. Take `Nc1nc(Nc2cccc(Cl)c2)n[nH]1`: the results for the EC50 in the data set on Plasmodium falciparum [1] and in the data set with Plasmodium falciparum [3] were 1680 nM and 958 nM, respectively. The molecule further showed a CC50 in data set [2] greater than 100000 nM.
The like results for `Cc1ccc(-c2cc3c(nn2)-c2ccccc2C3=O)cc1` were, in that order, 2000 nM, 799 nM and 83200 nM.
The like results for `N=C(N)c1ccc(OCCCOc2ccc(C(=N)N)cc2)cc1` were, in that order, 75.5 nM, 59.5 nM and greater than 6250 nM.
With `CCn1c2c(c(=N)c3ccccc31)CCC2`, the figures for the EC50 in the data set on Plasmodium falciparum [1] and in the data set with Plasmodium falciparum [3] were 341 nM and 954 nM, respectively. In data set [2], this molecule displayed a CC50 greater than 100000 nM.
For `C(=NNc1nc2ccccc2[nH]1)c1cccc(Oc2ccccc2)c1`, the values for the concentration for a half-maximal effect (EC50) in the data set with Plasmodium falciparum [1] and with Plasmodium falciparum [3] were 302 nM and 962 nM, respectively. In addition, the half-maximal cytotoxic concentration (CC50) in data set [2] was greater than 100000 nM.
The like results for `CN(C)c1ccc(/C=C/c2nc(=O)c3ccccc3o2)cc1` were, in that order, 130 nM, 93.6 nM and greater than 10000 nM.
With `COc1cc2cc(C(=O)Nc3ccccc3)c(N)nc2cc1OC`, the values for the half-maximal effective concentration (EC50) in the data set on Plasmodium falciparum [1] and in the data set with Plasmodium falciparum [3] were 409 nM and 964 nM, respectively. Further, the cytotoxic concentration (CC50) in data set [2] is greater than 100000 nM.
Take `Cc1ccn2c(NC(C)(C)CC(C)(C)C)c(-c3ccccc3OC(=O)c3ccc(Cl)cc3)nc2c1`: the EC50 was determined as 1210 nM in the data set with Plasmodium falciparum [1] and 77.8 nM in the data set with Plasmodium falciparum [3]. The same molecule returned a cytotoxic concentration (CC50) in data set [2] greater than 8270 nM.
The like results for `COc1cc(C=C(C#N)c2nc3ccccc3[nH]2)ccc1OCc1ccccc1F` were, in that order, 1380 nM, 937 nM and greater than 100000 nM.
The like results for `Cc1ccc2cc(C)c(Nc3ccc(Cl)cc3)nc2c1` were, in that order, 426 nM, 570 nM and 61000 nM.
The like results for `CC(=O)N(C1=C(N2CCOCC2)C(=O)c2ccccc2C1=O)c1ccc(C(C)C)c(C)c1` were, in that order, 25.6 nM, 88.1 nM and 9150 nM.
As to `Cc1cc(N2CCN(CC=Cc3ccccc3)CC2)n2c(nc3ccccc32)c1C#N`, the EC50 was 657 nM in the data set with Plasmodium falciparum [1] and 942 nM in the data set with Plasmodium falciparum [3]. Besides, the CC50 in data set [2] was greater than 100000 nM.
In the case of `COc1ccc(C2C(C(=O)Nc3cnc4ccccc4c3)c3ccccc3C(=O)N2Cc2ccc(F)cc2)cc1` (stereo unspecified), the figures for the 50% effective concentration (EC50) with Plasmodium falciparum [1] and in the data set with Plasmodium falciparum [3] were 2170 nM and 941 nM, respectively. Also, in data set [2], the CC50 is greater than 100000 nM.
For `CCN(CC)CCN(Cc1cc2c(C)cc(C)cc2[nH]c1=O)C(=S)NCCCN(C)C`, the figures for the EC50 in the data set on Plasmodium falciparum [1] and in the data set with Plasmodium falciparum [3] were 1850 nM and 723 nM, respectively. In addition, the CC50 in data set [2] was greater than 76300 nM.
For `COc1cncc(-c2cncc(N3CCN(c4ccncc4)CC3)n2)c1`, the 50% effective concentration (EC50) in the data set on Plasmodium falciparum [1] was 80.4 nM; in the data set with Plasmodium falciparum [3] it was 94.7 nM. This molecule also came in with a CC50 in data set [2] greater than 10000 nM.
The like results for `COc1ccc(C(=O)NC(c2ccccc2Cl)c2cc(Cl)c3cccnc3c2O)cc1` (stereo unspecified) were, in that order, 2370 nM, 833 nM and greater than 87000 nM.
Take `Cc1c(/C=C2\SC(=Nc3ccccc3F)N(C3CCCCC3)C2=O)c2ccccc2n1CC(N)=O`: the EC50 came to 301 nM in the data set with Plasmodium falciparum [1] and 961 nM in the data set on Plasmodium falciparum [3]. In addition, the half-maximal cytotoxic concentration (CC50) in data set [2] is greater than 100000 nM.
The like results for `O=C(CC1N=C2c3ccccc3N=C(SCc3cccc(F)c3)N2C1=O)NCc1cccs1` (stereo unspecified) were, in that order, 1190 nM, 960 nM and greater than 100000 nM.
Consider `COc1ccc(N2C(=O)C3C(C2=O)C2(c4ccccc4)C(=O)C3(c3ccccc3)C(c3ccc4c(c3)OCO4)=C2c2ccc3c(c2)OCO3)c([N+](=O)[O-])c1` (stereo unspecified), for which the EC50 worked out at 1160 nM in the data set on Plasmodium falciparum [1] and 938 nM in the data set with Plasmodium falciparum [3]. Further, the CC50 in data set [2] is greater than 100000 nM.
On to `CCCCCCCCCCCC(=O)Oc1ccccc1-c1nc2ccccn2c1NC(C)(C)CC(C)(C)C`, for which the results for the half-maximal effective concentration (EC50) with Plasmodium falciparum [1] and in the data set with Plasmodium falciparum [3] were 1260 nM and 93.6 nM, respectively. Besides, the CC50 in data set [2] is greater than 10000 nM.
The like results for `Cc1cccc(N2CCN(c3nc4ccccc4c4nnc(C)n34)CC2)c1C` were, in that order, 4400 nM, 943 nM and greater than 100000 nM.
In the case of `Cc1ccc(NC(=O)C2CSC(c3cccc(F)c3)N2C(=O)c2ccc(C(C)(C)C)cc2)cc1C` (stereo unspecified), the 50% effective concentration (EC50) in the data set with Plasmodium falciparum [1] came out at 604 nM; with Plasmodium falciparum [3] it was 8 nM. In data set [2], this molecule yielded a cytotoxic concentration (CC50) of 848 nM.
